Test results taken from US7829063B2, “Development of molecular imaging probes for carbonic anhydrase-IX using click chemistry” (Siemens Medical Solutions USA, Inc., priority 2007, dated 2010).

Each compound was assayed against T1, CA-IX (Homo sapiens, UniProt Q16790) (assay: CA-IX combinatorial library screening, competitive fluorescence-based assay with dansylamide (DNSA)). Settings: 1 h; Table 1, Libraries 1-3; sample concentrations 100 nM and 1000 nM, DNSA 200 μM; screening at 1 μM; read-out: In Vitro Binding Assay (Library Screening).
T1 construct: His tag (C); purchased R&D Systems Inc. 2188-CA; host or cells: mouse myeloma cell line NS0
Format: binding
Experimental: General. CA-IX human recombinant enzyme was expressed with a C-terminal His tag in a mouse myeloma cell line, NS0 (R&D Systems Inc., catalog number 2188-CA). The human red blood cells were obtained from Research Blood Components, LLC. All absorbance measurements were performed on a SPECTRA MAX M2 plate reader at 25° C. The LC/MS analyses were performed on an Agilent 1100 series LC/MSD (SL) using a 30×2.1 mm Zorbax C8 column with a Phenomenex C18 pre-column. Compound detection was accomplished by electrospray mass spectroscopy in positive selected ion mode (LC/MS-SIM). The elution solvents were acetonitrile and water, contained 0.05% TFA. Nuclear magnetic resonance (NMR) spectra were obtained on a Bruker AMX 300 MHz spectrometer or a Varian 400. 19F NMR spectra were recorded on a Bruker AMX 282.35 MHz or a Varian 400 spectrometer. The mass spectra were recorded on an Agilent 1100 series LC/MSD with electrospray mass spectroscopic detection. Flash column chromatography was performed on Merck silica gel (40-63 μm) using the solvent system indicated. The radiochemical and chemical purities were analyzed by RP-HPLC.
General Combinatorial Library Screening Protocol for CA-IX
The CA-IX screening assay was employed for testing libraries derived from the various “anchor” molecules, using ethoxzolamide as a positive control. The assay was performed at a substrate (dansylamide, DNSA) concentration of 200 μM, and sample concentrations of 100 nM and 1000 nM, respectively. A modified competitive fluorescence-based assay (A. Jain, S. G. Huang, G. M. Whitesides, J. Am. Chem. Soc. 1994, 116, 5057) was used to measure CA-IX activity. The enzymatic assay was carried out in a 96-well plate. To the wells, deionized water, 40 μL of phosphate buffer (250 mM, pH 7.4), 2.4 μL of CA-IX (17 μM), and 2 μL or 20 μL of inhibitor (concentration of 100 nM or 1000 nM) were added to achieve a final volume of 180 μL. Reactions were initiated by adding 20 μL DNSA (200 μM) to each well and the plate was incubated at 25° C. for 1 hour. The fluorescence intensities from each well of the plate were then read at 460 nm using a plate reader with an excitation wavelength of 290 nm.

Inhibition at 1 µM, < 40%:
NS(=O)(=O)c1nc2ccc(OCc3cn(C4CCN(S(=O)(=O)/C=C/c5ccccc5)CC4)nn3)cc2s1 [DHK143], NS(=O)(=O)c1nc2ccc(OCc3cn(C4CCN(C(=O)/C=C/c5ccccc5)CC4)nn3)cc2s1 [DHK144]

Same assay, conditions: 1 h; Table 2, Libraries 4-7; sample concentrations 100 nM and 1000 nM, DNSA 200 μM; screening at 1 μM; read-out: In Vitro Binding Assay (Library (Screening))

Inhibition at 1 µM, < 40%:
CC(C)[C@@H](C(=O)NCc1ccc(F)cc1)n1cc(-c2ccc(S(N)(=O)=O)cc2)nn1 [DHK165], CC(C)[C@@H](C(=O)N(C)Cc1ccccc1)n1cc(-c2ccc(S(N)(=O)=O)cc2)nn1 [DHK166], CC(C)[C@@H](C(=O)NCc1ccc(C(F)(F)F)cc1)n1cc(-c2ccc(S(N)(=O)=O)cc2)nn1 [DHK168], CC(C)[C@@H](C(=O)N1CCN(c2ccccn2)CC1)n1cc(-c2ccc(S(N)(=O)=O)cc2)nn1 [DHK174], CCOC(=O)[C@@H](Cc1ccccc1)NC(=O)[C@H](C(C)C)n1cc(-c2ccc(S(N)(=O)=O)cc2)nn1 [DHK175], CCOC(=O)[C@@H](NC(=O)[C@H](C(C)C)n1cc(-c2ccc(S(N)(=O)=O)cc2)nn1)C(C)C [DHK176], COC(=O)[C@H](C)NC(=O)[C@H](C(C)C)n1cc(-c2ccc(S(N)(=O)=O)cc2)nn1 [DHK177], CC(C)[C@@H](C(=O)NCc1ccccn1)n1cc(-c2ccc(S(N)(=O)=O)cc2)nn1 [DHK178], CC(C)[C@@H](C(=O)NC1CCCCC1)n1cc(-c2ccc(S(N)(=O)=O)cc2)nn1 [DHK179], CC(C)[C@@H](C(=O)NCC1CC1)n1cc(-c2ccc(S(N)(=O)=O)cc2)nn1 [DHK180], CC(C)[C@@H](C(=O)NCCCO)n1cc(-c2ccc(S(N)(=O)=O)cc2)nn1 [DHK181], Cc1onc(-c2ccccc2)c1CNC(=O)[C@H](C(C)C)n1cc(-c2ccc(S(N)(=O)=O)cc2)nn1 [DHK182], CCOC(=O)CCN(Cc1ccco1)C(=O)[C@H](C(C)C)n1cc(-c2ccc(S(N)(=O)=O)cc2)nn1 [DHK183], CCOC(=O)C1CCN(C(=O)[C@H](C(C)C)n2cc(-c3ccc(S(N)(=O)=O)cc3)nn2)CC1 [DHK184], CC(C)[C@@H](C(=O)N1CCN(CCO)CC1)n1cc(-c2ccc(S(N)(=O)=O)cc2)nn1 [DHK185], CC(C)[C@@H](C(=O)NC1c2ccccc2C[C@@H]1O)n1cc(-c2ccc(S(N)(=O)=O)cc2)nn1 (some centres unmarked) [DHK186], CC(C)[C@@H](C(=O)NCC1COc2ccccc2O1)n1cc(-c2ccc(S(N)(=O)=O)cc2)nn1 (some centres unmarked) [DHK187], CC(C)[C@@H](C(=O)N1CCC(N2CCCC2)CC1)n1cc(-c2ccc(S(N)(=O)=O)cc2)nn1 [DHK188], CC(C)[C@@H](C(=O)NCc1nc2ccccc2n1C)n1cc(-c2ccc(S(N)(=O)=O)cc2)nn1 [DHK189], CC(C)[C@@H](C(=O)N1CCN(c2ncccn2)CC1)n1cc(-c2ccc(S(N)(=O)=O)cc2)nn1 [DHK190], CC(C)[C@@H](C(=O)NCCN1CCN(Cc2ccccc2)CC1)n1cc(-c2ccc(S(N)(=O)=O)cc2)nn1 [DHK191], NS(=O)(=O)c1ccc(-c2cn([C@@H](Cc3ccccc3)C(=O)NCc3ccc(F)cc3)nn2)cc1 [DHK-2-1], CN(Cc1ccccc1)C(=O)[C@H](Cc1ccccc1)n1cc(-c2ccc(S(N)(=O)=O)cc2)nn1 [DHK-2-2], CN(C)Cc1ccc(CSCCNC(=O)[C@H](Cc2ccccc2)n2cc(-c3ccc(S(N)(=O)=O)cc3)nn2)o1 [DHK-2-3], NS(=O)(=O)c1ccc(-c2cn([C@@H](Cc3ccccc3)C(=O)N3CCN(c4ncccn4)CC3)nn2)cc1 [DHK-2-4], NS(=O)(=O)c1ccc(-c2cn([C@@H](Cc3ccccc3)C(=O)NCc3ccc(-c4ccccn4)s3)nn2)cc1 [DHK-2-5], NS(=O)(=O)c1ccc(-c2cn([C@@H](Cc3ccccc3)C(=O)N3CCC[C@@H]3CO)nn2)cc1 [DHK-2-6], NS(=O)(=O)c1ccc(-c2cn([C@@H](Cc3ccccc3)C(=O)N3CCN(c4ccccn4)CC3)nn2)cc1 [DHK-2-7], CCOC(=O)[C@@H](Cc1ccccc1)NC(=O)[C@H](Cc1ccccc1)n1cc(-c2ccc(S(N)(=O)=O)cc2)nn1 [DHK-2-8], CCOC(=O)[C@@H](NC(=O)[C@H](Cc1ccccc1)n1cc(-c2ccc(S(N)(=O)=O)cc2)nn1)C(C)C [DHK-2-9], COC(=O)[C@H](C)NC(=O)[C@H](Cc1ccccc1)n1cc(-c2ccc(S(N)(=O)=O)cc2)nn1 [DHK-2-10], NS(=O)(=O)c1ccc(-c2cn([C@@H](Cc3ccccc3)C(=O)NCc3ccccn3)nn2)cc1 [DHK-2-11], NS(=O)(=O)c1ccc(-c2cn([C@@H](Cc3ccccc3)C(=O)NC3CCCCC3)nn2)cc1 [DHK-2-12], NS(=O)(=O)c1ccc(-c2cn([C@@H](Cc3ccccc3)C(=O)NCC3CC3)nn2)cc1 [DHK-2-13], NS(=O)(=O)c1ccc(-c2cn([C@@H](Cc3ccccc3)C(=O)NCCCO)nn2)cc1 [DHK-2-14], Cc1onc(-c2ccccc2)c1CNC(=O)[C@H](Cc1ccccc1)n1cc(-c2ccc(S(N)(=O)=O)cc2)nn1 [DHK-2-15], CCOC(=O)CCN(Cc1ccco1)C(=O)[C@H](Cc1ccccc1)n1cc(-c2ccc(S(N)(=O)=O)cc2)nn1 [DHK-2-16], CCOC(=O)C1CCN(C(=O)[C@H](Cc2ccccc2)n2cc(-c3ccc(S(N)(=O)=O)cc3)nn2)CC1 [DHK-2-17], NS(=O)(=O)c1ccc(-c2cn([C@@H](Cc3ccccc3)C(=O)N3CCC(CCO)CC3)nn2)cc1 [DHK-2-18], NS(=O)(=O)c1ccc(-c2cn([C@@H](Cc3ccccc3)C(=O)NC3c4ccccc4C[C@@H]3O)nn2)cc1 (some centres unmarked) [DHK-2-19], NS(=O)(=O)c1ccc(-c2cn([C@@H](Cc3ccccc3)C(=O)NCC3COc4ccccc4O3)nn2)cc1 (some centres unmarked) [DHK-2-20], NS(=O)(=O)c1ccc(-c2cn([C@@H](Cc3ccccc3)C(=O)N3CCC(N4CCCC4)CC3)nn2)cc1 [DHK-2-21], Cn1c(CNC(=O)[C@H](Cc2ccccc2)n2cc(-c3ccc(S(N)(=O)=O)cc3)nn2)nc2ccccc21 [DHK-2-22], NS(=O)(=O)c1ccc(-c2cn([C@@H](Cc3ccccc3)C(=O)NCCN3CCN(Cc4ccccc4)CC3)nn2)cc1 [DHK-2-23], CC(C)[C@@H](C(=O)NCc1ccc(F)cc1)n1cc(COc2ccc3nc(S(N)(=O)=O)sc3c2)nn1 [DHK-2-25], CC(C)[C@@H](C(=O)N(C)Cc1ccccc1)n1cc(COc2ccc3nc(S(N)(=O)=O)sc3c2)nn1 [DHK-2-26], CC(C)[C@@H](C(=O)NCCSCc1ccc(CN(C)C)o1)n1cc(COc2ccc3nc(S(N)(=O)=O)sc3c2)nn1 [DHK-2-27], CC(C)[C@@H](C(=O)N1CCN(c2ncccn2)CC1)n1cc(COc2ccc3nc(S(N)(=O)=O)sc3c2)nn1 [DHK-2-28], CC(C)[C@@H](C(=O)NCc1ccc(-c2ccccn2)s1)n1cc(COc2ccc3nc(S(N)(=O)=O)sc3c2)nn1 [DHK-2-29], CC(C)[C@@H](C(=O)N1CCC[C@@H]1CO)n1cc(COc2ccc3nc(S(N)(=O)=O)sc3c2)nn1 [DHK-2-30], CC(C)[C@@H](C(=O)N1CCN(c2ccccn2)CC1)n1cc(COc2ccc3nc(S(N)(=O)=O)sc3c2)nn1 [DHK-2-31], CCOC(=O)C(Cc1ccccc1)NC(=O)[C@H](C(C)C)n1cc(COc2ccc3nc(S(N)(=O)=O)sc3c2)nn1 (some centres unmarked) [DHK-2-32], CCOC(=O)C(NC(=O)[C@H](C(C)C)n1cc(COc2ccc3nc(S(N)(=O)=O)sc3c2)nn1)C(C)C (some centres unmarked) [DHK-2-33]

Same assay, conditions: Table 2, Libraries 4-7; sample concentrations 100 nM and 1000 nM, DNSA 200 μM; screening at 1 μM

In Vitro Binding Assay (Library Screening), √ √:
CC(C)[C@@H](C(=O)NCc1ccc(C(F)(F)F)cc1)n1cc(COc2ccc3nc(S(N)(=O)=O)sc3c2)nn1 [DHK-2-24]
